Entries after “also recorded” stand apart in the source; their conditions may differ.
Experiments:
ERβ = biological target: T1, ERβ (Homo sapiens, UniProt Q92731); assay: ERβ PolarScreen fluorescence polarization competitor assay; assay type: binding; conditions: duplicate
T1 construct: purchased Invitrogen (Carlsbad, CA)
Procedure: (§1) FIGS. 3A & 3B show fluorescence polarization studies performed on classical estrogen receptors, ERα and ERβ, to determine off-target binding. Studies were performed in duplicate. […] Overall, it appears that compound 1 binds greater to ERβ than ERα and compound 2 binds to ERα but not ERβ.
(§2) The ERα and ERβ PolarScreen™ Competitor Assays by Invitrogen (Carlsbad, CA) were purchased and utilized to determine binding to the classical nuclear esetrogen recetors, ERα and ERβ. The concentrations of the ERα and ERβ enzyme varied between the two assays. A 4× sample of ERα was prepared for a final concentration of 75 nM. Conversely, a 4× sample of ERβ was prepared for a final concentration of 23 nM within the assay. For both ERα and ERβ a 4× aliquot of Fluoromone was prepared for a final assay concentration of 4.5 nM. Despite the differences in concentration of ERα and ERβ, the binding assay protocol for the two different enzymes remained the same. Drug dilutions were prepared for a 2× dilution in the ER specific buffer that was provided within the assay kit. In addition to the drug dilutions a 2× aliquot of Fluoromone was prepared by adding 10 uL of 4× with 10 uL of ER specific buffer. A 2× dilution of enzyme and fluorophore was achieved by adding equal portions of each to each other. […] The plate was incubated at RT for 2 hours before being read with λex 485 nm and λem 535 nm.

GPER = biological target: T2, GPER (Homo sapiens, UniProt Q99527); assay: cAMP competition study with selective GPER antagonist in HL-60 cells; assay type: cell-based; conditions: EC50 of G-36 plus 1 μM agonist, compared to agonist alone at 1 μM
T2 construct: siRNA was used to knock-down expression of GPER; endogenous in cells; host or cells: HL-60 (human myelocytic leukemia) cells
Procedure: In cAMP competition studies HL-60 cells were grown in 10% charcoal-stripped RPMI media for 72 hours prior to assays. Cells were centrifuged and counted with a hemocytometer from Hausser Scientific (Horsham, PA). The total number of cells needed to complete the assay was determined based upon 8,000 cells/well. The determined number of cells was diluted in 5:1 (5×) stimulation buffer contain 500 μM of 3-isobutyl-1-methylxanthine (IBMX) (Sigma Aldrich, Saint Louis, MO). […] Following the incubation period, 2 μL of various concentrations of compound (5×) were added. […] The plate was sealed and incubated at 37° C. for 10 minutes. After 10 minutes a 4:1 ratio of lysis buffer to donor/acceptor were individually prepared and 5 μL of lysis buffer/cAMP-d2 (acceptor) and 5 μL of lysis buffer/monocolonal anti-cAMP Eu3+ cryptate (donor) were added to all wells. The assay plate was sealed and incubated at room temperature for 30 minutes before being read at λex 314 nm and λem 665 nm/λem 620.

ERα = biological target: T3, ERα (Homo sapiens, UniProt P03372); assay: ERα PolarScreen fluorescence polarization competitor assay; assay type: binding; conditions: duplicate
T3 construct: purchased Invitrogen (Carlsbad, CA)
T3 sequence (P03372 1-595): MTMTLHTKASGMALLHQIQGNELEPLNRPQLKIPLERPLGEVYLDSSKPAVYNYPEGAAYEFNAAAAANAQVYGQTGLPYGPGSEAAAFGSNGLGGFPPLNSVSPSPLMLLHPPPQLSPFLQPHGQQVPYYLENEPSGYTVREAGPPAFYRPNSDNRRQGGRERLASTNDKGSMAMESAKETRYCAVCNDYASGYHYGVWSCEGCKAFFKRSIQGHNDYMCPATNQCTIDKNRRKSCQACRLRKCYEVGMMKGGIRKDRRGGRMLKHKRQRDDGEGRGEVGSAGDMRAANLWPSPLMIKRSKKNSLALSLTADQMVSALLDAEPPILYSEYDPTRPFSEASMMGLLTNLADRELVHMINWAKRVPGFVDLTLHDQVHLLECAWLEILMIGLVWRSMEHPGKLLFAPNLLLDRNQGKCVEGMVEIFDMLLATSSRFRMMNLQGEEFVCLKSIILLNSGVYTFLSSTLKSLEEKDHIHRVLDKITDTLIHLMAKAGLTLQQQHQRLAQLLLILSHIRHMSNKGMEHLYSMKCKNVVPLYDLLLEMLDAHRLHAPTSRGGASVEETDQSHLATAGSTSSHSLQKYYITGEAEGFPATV
Procedure: as §1, §2

[1] = biological target: T4, G protein-coupled estrogen receptor (GPER) (Homo sapiens, UniProt Q99527); assay: HTRF cAMP formation assay in HL-60 cells; assay type: cell-based; conditions: values with * unexplained
T4 construct: siRNA was used to knock-down expression of GPER; endogenous in cells; host or cells: HL-60 (human myelocytic leukemia) cells
Procedure: For cAMP formation studies to determine potentcy, a homogeneous time resolved fluorescence (HTRF®) components for cAMP was purchased by CisBio (Bedford, MA). HL-60 cells were grown in 10% charcoal-stripped RPMI media for 72 hours prior to assays. Cells were centrifuged and counted with a hemocytometer from Hausser Scientific (Horsham, PA). The total number of cells needed to complete the assay was determined based upon 8,000 cells/well. The determined number of cells was diluted in 5:1 (5×) stimulation buffer contain 500 μM of 3-isobutyl-1-methylxanthine (IBMX) (Sigma Aldrich, Saint Louis, MO). To an HTRF 96-well low volume white plate from CisBio, 2 μL of (5×) agonist was added to the designated wells, followed by 8 μL of col cell suspension. Two controls were run during the experiment to establish basal cAMP formation and […] cAMP with the use of 20 μM forskolin. Cells were covered with a clear plastic film and incubated at 37° C. for 15 mins. During the 15 minutes incubation a 4:1 solution of lysis buffer to dye was prepared individually. After the 15 minute incubation 5 μL of lysis buffer/cAMP-d2 (acceptor) and 5 μL of lysis buffer/monocolonal anti-cAMP Eu3^+ cryptate (donor) were added to all wells. Once added, the plate was sealed, covered with aluminum foil, and incubated at room temperature for 30 mins. After the allotted time cells were read using Flexstation3 and with λex 314 nm and λem 665 nm/λem 620. Antagonism assay format varied slightly. […] To the plate, 2 μL of (5×) antagonist were added dose wise followed by the addition of 6 μL of cold cell suspension to all wells. Controls from the agonism assay remained the same in the antagonism assay. Cells and antagonists were incubated for 20 minutes at 37° C. […] Similar to the agonism assay a 4:1 ratio of lysis buffer to donor/acceptor were prepared. Following the previous incubation period, 5 μL of lysis buffer/cAMP-d2 (acceptor) and 5 μL of lysis buffer/monocolonal anti-cAMP Eu3^+ cryptate (donor) were added to all wells. Cells were allowed to equilibrate at room temperature for 30 minutes before being read at λex 314 nm and λem 665 nm/λem 620.
Calcium mobilization signal was assessed with the use of 0.1% pluronic acid and 5 μM Indo-1AM, a ratiometric dye. The EC50 values were determined based upon triplicate runs on triplicate plates. […] Cyclic AMP formation through the Gi/o-pathway was monitored utilizing a homogenous time-resolved fluorescence assay purchased from CisBio. A triplicate was performed and an EC50 value was calculated. […] The EC50 values were determined based upon triplicate runs on a triplicate plates.

T1 sequence (Q92731 whole entry): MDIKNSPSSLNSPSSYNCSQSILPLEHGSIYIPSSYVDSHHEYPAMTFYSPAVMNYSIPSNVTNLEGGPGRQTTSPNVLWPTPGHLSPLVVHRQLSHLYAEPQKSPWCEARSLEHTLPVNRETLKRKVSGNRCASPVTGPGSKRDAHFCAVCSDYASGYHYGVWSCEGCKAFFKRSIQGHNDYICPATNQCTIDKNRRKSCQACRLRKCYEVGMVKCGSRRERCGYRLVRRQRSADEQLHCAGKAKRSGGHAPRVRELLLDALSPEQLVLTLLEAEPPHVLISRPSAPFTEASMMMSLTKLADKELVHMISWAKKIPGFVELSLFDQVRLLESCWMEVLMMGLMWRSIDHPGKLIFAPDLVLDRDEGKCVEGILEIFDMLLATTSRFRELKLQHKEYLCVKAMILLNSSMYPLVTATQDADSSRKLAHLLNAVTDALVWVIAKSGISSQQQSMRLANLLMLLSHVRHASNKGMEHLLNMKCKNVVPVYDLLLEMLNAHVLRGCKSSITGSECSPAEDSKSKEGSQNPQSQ
T4 sequence (Q99527 whole entry): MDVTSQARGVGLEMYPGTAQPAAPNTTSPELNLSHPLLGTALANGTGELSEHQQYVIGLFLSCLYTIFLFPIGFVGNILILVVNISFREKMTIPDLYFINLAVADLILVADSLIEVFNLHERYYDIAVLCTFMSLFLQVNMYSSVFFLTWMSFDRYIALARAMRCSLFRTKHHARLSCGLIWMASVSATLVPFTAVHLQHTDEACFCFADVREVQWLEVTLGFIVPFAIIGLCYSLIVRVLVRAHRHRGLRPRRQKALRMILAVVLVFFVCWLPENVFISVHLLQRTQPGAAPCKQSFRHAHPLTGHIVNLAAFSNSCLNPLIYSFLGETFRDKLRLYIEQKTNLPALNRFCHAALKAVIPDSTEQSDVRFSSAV
T2 sequence (Q99527 whole entry): as above

| Compound | binding to ERβ (ERβ) | activation of adenylate cyclase and cAMP formation when challenged against G-36 (GPER) | binding to ERα (ERα) | EC50 [1] [nM] |
| --- | --- | --- | --- | --- |
| CC(C)c1ccc(NCc2ccc(CO)o2)c(C2CCCCC2)c1 [Compound 1] | exhibit binding; also recorded: appeared to show binding | statistically significant reduction | exhibit binding; also recorded: significant binding | 1590 |
| CC(C)c1ccc(NCc2ccoc2)c(C2CCCCC2)c1 [Compound 2] | exhibit binding; also recorded: binding trend for compound 2 was less consistent | statistically significant reduction | exhibit binding; also recorded: significant binding | 1190 |
